# Data as given in a melting point compilation (Tetko et al.; mined from patent text by program, amines drawn as free bases though some values may be those of a salt).
row,Compound,melting point
1,O=C(Nc1ccccc1)N1CCc2[nH]cc3c(=O)n(-c4ccc(Cl)cc4)nc-3c2C1,293 to 295 °C
2,COc1ccc2ccc(N3C(=O)c4ccccc4C3OCC(=O)NCCN(C)C)nc2n1 (stereo not given),146 °C
3,COCCCn1c(C(N)=O)cc2c3c(c(-c4ccccc4Cl)cc21)C(=O)NC3=O,260 to 261 °C
4,Cc1cc([N+](=O)[O-])c(C(=O)OC(C)C)cc1Oc1ccc(OC(F)(F)F)cc1,47 to 49 °C
5,CCCN(CCC)C1Cc2c[nH]c3ccc(C(C)=O)c(c23)C1 (stereo not given),148 to 150 °C
6,Cc1ccncc1C(O)c1ccc2cc(C(=O)OC(C)C)ccc2c1 (stereo not given),180 to 183 °C
7,O=S(=O)(c1cccs1)N(CC1CC1)c1cccc2cc(-c3ncc(CO)s3)[nH]c12,174 °C
8,CCCC(c1ccc(C(=O)O)cc1OCc1ccc(Br)cc1)n1ccnc1 (stereo not given),155 to 158 °C
9,COc1ccc(COc2nc(C3CC3)c3cc(-c4cccc(Cl)c4)ccc3n2)cc1,158 to 159 °C
10,OCC=CCOc1nc(F)c(Cl)cc1Cl,30 °C
11,CNC(=O)c1cccc(C=O)c1O,129 to 131 °C
12,O=C1Cc2cccc(Sc3ccccc3)c2N1,160 to 161 °C
13,CCCc1nc(NC(=N)N)sc1-c1cccc([N+](=O)[O-])c1,137 to 139 °C
14,CCCCc1ccc(N2CCN(C(=O)Nc3nc(C)c(C)nc3OC)CC2)cc1,121 to 123 °C
15,CCNc1nnc2ccc(-c3cccc(N(CC)C(=O)CC)c3)nn12,164 to 166 °C
16,CN1CCCC1CNC(=O)c1ccc(S(=O)(=O)N(C)C)c2c1OCCO2 (stereo not given),165 to 166 °C
17,O=C(O)C1C=Nc2c(ccc3ncccc23)N1O (stereo not given),> 300 °C
18,CC(C)c1cccc(C(C)C)c1NC(=O)CN1CCN(CCSc2nc3cccc(S(C)=O)c3o2)CC1 (stereo not given),119 to 120 °C
19,COCOc1cc(OCOC)c(C(=O)C=Cc2cc(OC)c(OCOC)c(OC)c2)c(O)c1CC=C(C)C,91.2 to 92 °C
20,O=c1ccc2cnc(Nc3ccccc3)nc2n1C1CCCC1,188 to 192 °C
21,CCOC(=O)Cc1ccc(OCCN2CCN(c3cc(Cl)nnc3Cl)CC2)cc1,128 to 130 °C
22,Clc1ccc(-c2ccc(Cl)nc2)cc1,113 to 115 °C
23,C=CCOC(=O)CC(=O)CCN1C(=O)c2ccccc2C1=O,53 to 55 °C
24,CC(C)(C)OC(=O)OCc1ccc(COC(=O)OC(C)(C)C)cc1,71 to 74 °C

row,Compound,melting point
1,COc1cc2c(-c3cc4cccnc4[nH]3)cn(CCN3CCOCC3)c2cc1OC,218 °C
2,Cc1cccc(C(=O)NC(C)C)c1NC(=O)c1cc(C(F)(F)F)nn1-c1ncccc1C(F)(F)F,227 to 230 °C
3,CCOC(CCN(C(=O)c1cccs1)c1nc(-c2cc(-c3ccccc3)no2)cs1)OCC,100 to 101 °C
4,CCOC(=O)c1cnc2ccc(C#N)cc2c1NCc1ccc(OC)c(Cl)c1,161 to 162 °C
5,CCCc1cc(C(=O)NCCC(N)=O)ccc1OC(C(=O)NS(=O)(=O)c1ccc(C(C)C)cc1)c1ccc2c(c1)OCO2 (stereo not given),110 to 112 °C
6,CN(C)c1cccc(S(=O)Nc2ccccc2)c1 (stereo not given),86 to 87 °C
7,COc1ccc(S(=O)(=O)N(Cc2cccnc2)c2c(C(=O)O)cc(C)cc2-c2cccs2)cc1,67 °C
8,CC(=O)Nc1nc(/C=C/C(=O)N2CCN(C(=O)c3cc(C(F)(F)F)cc(C(F)(F)F)c3)[C@H](Cc3ccc(C)c(C)c3)C2)cs1,145 to 149 °C
9,C#CCN(Cc1ccccc1)S(=O)(=O)c1ccc([N+](=O)[O-])cc1[N+](=O)[O-],91 to 92 °C
10,ClC(Cl)(Cl)c1nc(-c2ccc(OCCCn3ccnc3)cc2)no1,102 to 103 °C
11,OC(CCCc1ccccc1)c1ccc(OCc2ccc3ccccc3n2)cc1 (stereo not given),118 to 119 °C
12,Cc1c(C(=O)O)ccn2nc(-c3ccccc3)nc12,> 250 °C
13,COc1ccc(-c2cc(COS(C)(=O)=O)c(=O)n(Cc3ccc(Cl)cc3)n2)cc1F,156 to 157 °C
14,Cn1c(CNCC(C)(C)O)cc2cc(NC(=O)c3ccc(OC[C@@H]4CCCO4)cc3F)ccc21,159 to 160 °C
15,CC(=O)OC1CSC(Oc2cccnc2-c2cncnc2)C(OC(C)=O)C1OC(C)=O (stereo not given),205 °C
16,COc1ccc(/C(=C/C=C/C(=O)O)c2cccs2)cc1,214 to 216 °C
17,CCOC(C)c1cc2c(=O)n(NS(C)(=O)=O)c(=O)[nH]c2cc1C(F)(F)F (stereo not given),105 to 112 °C
18,O=C(O)C1CSC(c2cccc(OCCO[N+](=O)[O-])c2)N1 (stereo not given),117 to 119 °C
19,CC1=CC(=O)c2cc(O)ccc2C1=O,175 °C
20,C=CCc1cc(CC(=O)OC)ccc1OCc1ccc2ccccc2n1,71 °C
21,CON=CC1=CCCN(C(=O)OCC(=O)N2CCCCC2)C1,93 to 94 °C
22,CCC(=O)O[C@H]1C[C@@H](C(=O)OC)[C@]2(C)CC[C@H]3C(=O)O[C@H](c4ccoc4)C[C@]3(C)[C@H]2C1=O,217 to 221 °C
23,Nc1cc2c(Nc3ccc(Cl)c(Cl)c3)ncnc2cn1,277 to 280 °C
24,CC(=O)c1cccc2c(=O)c(C)c(-c3ccccc3)oc12,159 to 161 °C

row,Compound,melting point
1,CC1(C)OC(=S)Nc2ccc(-c3cc(Cl)cc(C#N)c3)cc21,249 to 251 °C
2,CCOc1nc2c(C)sc(C(=O)OC)c2n1Cc1ccc(-c2ccccc2)c(-c2nc(=O)o[nH]2)c1,208 to 210 °C
3,O=[N+]([O-])c1ccc(NS(=O)(=O)c2ccccc2)c(Cl)c1,155 to 157 °C
4,Nc1ccc(-n2cnc(-c3ccc(C(F)(F)F)cc3)n2)cc1Cl,148 °C
5,COc1ccccc1[N+]1([O-])CC[N+]([O-])(CCN(C(=O)C2CCCCC2)c2ccccc2[N+](=O)[O-])CC1 (stereo not given),153 to 157 °C
6,COc1ccc(-c2c(Cl)c(CN3C(=O)CSC3=O)nc3sc4c(c23)CCSC4)cc1,208 to 209 °C
7,Cn1cnc2c1c(=O)n(CC(O)CN1CCN(C(c3ccc(F)cc3)c3ccc(F)cc3)CC1)c(=O)n2C (stereo not given),138 to 140 °C
8,CCCCCCCCCOc1ccnc(C(=O)O)c1,89 to 92 °C
9,CCOC(=O)c1ccc(-c2nnc(-c3ccccc3N)o2)cc1,174 to 175 °C
10,CC(=O)c1cccc(Oc2ncccc2C(=O)NCc2ccc(S(N)(=O)=O)cc2)c1,162 to 164 °C
11,Cn1cc(OS(C)(=O)=O)c(=O)c2ccccc21,208 to 209 °C
12,CCNCCNc1ccc(NCCN(CC)CC)c2c1C(=O)c1c(O)ccc(O)c1C2=O,161 to 163 °C
13,CCOP(=O)(OCC)C1Cc2cc(C(F)(F)F)cc3[nH]c(=O)c(=O)n(c23)C1 (stereo not given),253 °C
14,O=C(O)Cn1cc(C(=O)O)c(=O)c2ccccc(=O)c21,> 250 °C
15,COc1c(C)cnc(CS(=O)c2nc3ncccc3[nH]2)c1C (stereo not given),169 to 170 °C
16,COC(=O)C1(C)Cc2c([nH]c3ccc(OC)cc23)C(c2ccccc2)N1 (stereo not given),172 to 175 °C
17,CCCC(C)COc1cc(CCl)c(OC)cc1CCl (stereo not given),78 to 80 °C
18,CCCCCCCCCCCCCCCCCCOC(=O)C(N)Cc1ccc(O)cc1 (stereo not given),80 to 83 °C
19,CC1(c2ccc(C#N)cc2)Cc2cc(O)c(Cl)c(Cl)c2C1=O (stereo not given),189 to 196 °C
20,CC1(C)Oc2ccc(S(=O)(=O)C(F)(F)F)cc2[C@@H](N2Cc3ccccc3C2=O)[C@@H]1O[N+](=O)[O-] (relative stereo),190 °C
21,O=C(Cc1noc2ccccc12)N[C@H]1CC[C@H](CCN2CCN(c3nccc4c3OCC4)CC2)CC1,211 °C
22,CCn1c(=O)[nH]c2ncccc2c1=O,240 to 241 °C
23,COC(=O)C1(N)CCN(c2ncc3ncnc(Nc4ccc(F)c(Cl)c4)c3n2)CC1,182 to 184 °C
24,Nc1nc2c(OCCOc3nccnc3N3CCNCC3)cccc2o1,138 to 140 °C

row,Compound,melting point
1,O=C(O)CC1Cc2ccc(OCc3ccccc3)cc2C1 (stereo not given),127 to 129 °C
2,O=C(O)c1cc(-n2c(-c3ccccc3)cc3c2CCc2ccccc2-3)ccc1S,260 to 262 °C
3,O=[N+]([O-])c1cccc2c(CO)ccnc12,148 °C
4,O=C(NCc1ccccn1)Nc1cc(-n2c(=O)oc3ccccc32)ccn1,237 to 238 °C
5,COc1ccnc(CSc2nc3c(C)c(OC(F)F)c(C)cc3[nH]2)c1,168 to 169 °C
6,CC1=C(C(=O)OCc2ccccc2)C(c2cccc(Cl)c2Cl)C(C(=O)OCc2ccccc2)=C(C)N1,131 to 132 °C
7,CN1C(=O)C(C)(Cc2ccccc2)N(C)C(=O)C1=Cc1cccnc1Cl (stereo not given),146 °C
8,CC1CCc2ncc(-c3ccccc3)c(=O)n21 (stereo not given),118 to 122 °C
9,Nc1ccccc1C(=O)NN=Cc1c(O)ccc2ccccc12,188 to 191 °C
10,COCc1nnc(-c2cccnc2)n1-c1c(C)c(Cl)cc2nc(OC)c(OC)nc12,166 to 168 °C
11,CC1CC(c2cc3ccc(F)cc3s2)CCN1 (stereo not given),34 to 37 °C
12,CCOc1cc(C2=NN(C3CCCC3)C(=O)[C@H]3CC=CC[C@@H]23)ccc1OC (relative stereo),124 to 127 °C
13,COc1cn(-c2ccc(-c3ncco3)cc2F)nc(-c2ccnn2-c2ccccc2)c1=O,223 to 225 °C
14,COc1ccc2sc3c(c2c1)OCCNC3=O,264 to 265 °C
15,COC(=O)C12C3C4C1(C(=O)OC)C1(Cl)C2C3(C(=O)OC)C41C(=O)OC (stereo not given),134 to 135 °C
16,O=C1c2c(Br)cccc2-n2cnc(-c3noc(CCl)n3)c2[C@@H]2CCN12,210 to 211 °C
17,Cc1cc(C2(C(F)(F)F)CC(c3ccc(S(C)=O)cc3)=NO2)ccc1N (stereo not given),68.5 to 77 °C
18,CCOC(=O)c1nc(NCC(c2ccccc2)c2ccccc2)c2nc[nH]c2n1,> 200 °C
19,Cc1ccc(-c2nc(COc3ccc(CCCCn4ccnc4)cc3)cs2)s1,81 to 82 °C
20,CC(C)c1ccc(C(=O)c2ccc([N+](=O)[O-])cc2)cc1,95 °C
21,CCOC(=O)c1nc(-c2ccc(=O)n(CC)c2)c(-c2ccccc2)nc1N,175 to 179 °C
22,CC(C)CC(NC(=O)C(NCc1ccccc1)C(C)C)C(=O)NC(CCCCNC(=O)OCc1ccccc1)C(=O)Oc1cccc2ccccc12 (stereo not given),153 to 156 °C
23,CC(C)Cc1ccccc1Sc1c(O)cc(-c2ccccc2)oc1=O,195 °C
